{"source": "patent US20250243486A1", "about": "“COMPOSITIONS AND METHODS FOR INHIBITING STAG1 EXPRESSION AND USES THEREOF” (PRESIDENT AND FELLOWS OF HARVARD COLLEGE, priority 2022, published 2025)", "system": "STAG1 Exon 5", "assay": "STAG1 Exon 5 inclusion in control or STAG2 KO cells following treatment with H3B-8800", "type": "cell-based", "data": [{"substance": "H3B-8800", "values": [{"measurement": "STAG1 Exon 5 skipping", "setting": "STAG2 KO versus control cells, following treatment of H3B-8800", "result": "increased STAG1 Exon 5 skipping"}, {"measurement": "sensitivity of cohesin-mutant AML cells to splicing inhibitor", "setting": "cohesin mutations, AML cells", "result": "highly sensitive"}]}]}
